In PubChem BioAssay AID330 (DTP/NCI, 2004):
“And” between values parts separate entries of the source, which are not always exact repeats. Equal values may be shown once. Inconclusive results and toxic doses are left out. The calls were made as follows: active = survival T/C of 150% or more; inactive = T/C below 125% in these data.

Test system: P388 leukemia ip, CD2F1 mice, survival T/C
Assay: NCI In Vivo Anticancer Drug Screen. Data for tumor model P388 Leukemia (intraperitoneal) in CD2F1 (CDF1) mice
Settings: endpoint: median survival time, higher = longer survival
Outline: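 Mice carrying the transplanted tumor received test compound or vehicle. Survival was recorded in each group, and the value is the treated-group measurement divided by that of the vehicle-treated control group.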

[1] = dose: 12.5 mg/kg/injection, schedule: Q01DX009 (ip), vehicle: Klucel (hydroxypropylcellulose) (HPC)
[2] = dose: 25.0 mg/kg/injection, schedule: Q01DX009 (ip), vehicle: Klucel (hydroxypropylcellulose) (HPC)
[3] = dose: 50.0 mg/kg/injection, schedule: Q01DX009 (ip), vehicle: Klucel (hydroxypropylcellulose) (HPC)
[4] = dose: 100.0 mg/kg/injection, schedule: Q01DX009 (ip), vehicle: Klucel (hydroxypropylcellulose) (HPC)
[5] = dose: 50.0 mg/kg/injection, schedule: Q01DX005 (ip), vehicle: Klucel (hydroxypropylcellulose) (HPC)
[6] = dose: 100.0 mg/kg/injection, schedule: Q01DX005 (ip), vehicle: Klucel (hydroxypropylcellulose) (HPC)
[7] = dose: 60.0 mg/kg/injection, schedule: Q01DX005 (ip), vehicle: Klucel (hydroxypropylcellulose) (HPC)
[8] = dose: 120.0 mg/kg/injection, schedule: Q01DX005 (ip), vehicle: Klucel (hydroxypropylcellulose) (HPC)
[9] = dose: 240.0 mg/kg/injection, schedule: Q01DX005 (ip), vehicle: Klucel (hydroxypropylcellulose) (HPC)
[10] = dose: 100.0 mg/kg/injection, schedule: Q01DX001 (ip), vehicle: Klucel (hydroxypropylcellulose) (HPC)
[11] = dose: 200.0 mg/kg/injection, schedule: Q01DX001 (ip), vehicle: Klucel (hydroxypropylcellulose) (HPC)
[12] = dose: 50.0 mg/kg/injection, schedule: Q01DX009 (ip), vehicle: saline
[13] = dose: 100.0 mg/kg/injection, schedule: Q01DX009 (ip), vehicle: saline
[14] = dose: 200.0 mg/kg/injection, schedule: Q01DX009 (ip), vehicle: saline
[15] = dose: 50.0 mg/kg/injection, schedule: Q01DX009 (ip), vehicle: saline with Tween-80
[16] = dose: 100.0 mg/kg/injection, schedule: Q01DX009 (ip), vehicle: saline with Tween-80
[17] = dose: 50.0 mg/kg/injection, schedule: Q01DX005 (ip), vehicle: saline with Tween-80
[18] = dose: 100.0 mg/kg/injection, schedule: Q01DX005 (ip), vehicle: saline with Tween-80
[19] = dose: 200.0 mg/kg/injection, schedule: Q01DX005 (ip), vehicle: saline with Tween-80
[20] = dose: 100.0 mg/kg/injection, schedule: Q01DX001 (ip), vehicle: saline with Tween-80
[21] = dose: 200.0 mg/kg/injection, schedule: Q01DX001 (ip), vehicle: saline with Tween-80
[22] = dose: 400.0 mg/kg/injection, schedule: Q01DX001 (ip), vehicle: saline with Tween-80

Measured: T/C

Nc1ncnc(Nc2ccc(C(F)(F)F)cc2)n1
inactive: [1] 118 % of control | [2] 107 % of control | [3] 93 % of control | [4] 87 % of control

COC(=O)n1oc2ccc(Br)cc2c1=O
inactive: [5] 98 % of control | [6] 100 % of control | dose: 200.0 mg/kg/injection, schedule: Q01DX005 (ip), vehicle: Klucel (hydroxypropylcellulose) (HPC) 106 % of control

CC(=O)Nc1cccc2c1C(=O)c1nccnc1C2=O
inactive: dose: 12.5 mg/kg/injection, schedule: Q04DX002 (ip), vehicle: Klucel + Tween-80 99 % of control | dose: 25.0 mg/kg/injection, schedule: Q04DX002 (ip), vehicle: Klucel + Tween-80 98 % of control | dose: 50.0 mg/kg/injection, schedule: Q04DX002 (ip), vehicle: Klucel + Tween-80 91 % of control

CCCCCCCCCCCCCCOC(=O)C(N)Cc1ccc(O)cc1 (centres undefined)
inactive: [7] 100 % of control | [8] 100 % of control | [9] 100 % of control

CC1=NCc2c(nnn2C)N1
inactive: [10] 104 % of control | [11] 101 % of control

CCNC1=C(C(=O)c2ccccc2)CCC1
inactive: [12] 109 % of control | [13] 104 % of control | [14] 109 % of control

COc1cc(C/C(=C\c2ccc3c(c2)OCO3)[N+](=O)[O-])ccc1OCc1ccccc1
inactive: [10] 98 % of control | [11] 96 % of control | dose: 400.0 mg/kg/injection, schedule: Q01DX001 (ip), vehicle: Klucel (hydroxypropylcellulose) (HPC) 96 % of control

CC[C@@H]1O[C@@H]([C@@H]2CC[C@](O)([C@]3(C)CC[C@@H]([C@@H](C)[C@@]4(O)CC[C@H](C)[C@@H](C[C@@]5(O)O[C@@H]([C@@H](C)[C@H](O)C[C@H]6CC[C@H](C)[C@@H]([C@@H](C)C(=O)O)O6)CC[C@@H]5C)O4)O3)O2)CC[C@@]1(C)O
inactive: dose: 0.12 mg/kg/injection, schedule: Q01DX009 (ip), vehicle: saline with Tween-80 109 % of control | dose: 0.25 mg/kg/injection, schedule: Q01DX009 (ip), vehicle: saline with Tween-80 111 % of control

CCc1nc(N)nc(N)c1-c1ccc(N(C)C)c(N)c1
inactive: [5] 100 % of control | [6] 96 % of control

CCCCCCCCCCCCCCCCCC[N+]1(CCCC)CCOCC1
inactive: dose: 12.5 mg/kg/injection, schedule: Q01DX009 (ip), vehicle: saline with Tween-80 102 % of control | dose: 25.0 mg/kg/injection, schedule: Q01DX009 (ip), vehicle: saline with Tween-80 108 % of control | [15] 101 % of control and 114 % of control

C=CCC1(CCC)C(=O)NC(=S)NC1=O
inactive: [15] 110 % of control | [16] 117 % of control | dose: 200.0 mg/kg/injection, schedule: Q01DX009 (ip), vehicle: saline with Tween-80 115 % of control

CCOC(=O)C(CCc1ccc(N(CCCl)CCCl)cc1)(NC(C)=O)C(=O)OCC
inactive: [1] 109 % of control | [2] 111 % of control | [3] 116 % of control

Cc1onc(-c2c(F)cccc2Cl)c1C(=O)N[C@@H]1C(=O)N2[C@@H]1SC(C)(C)[C@@H]2C(=O)O
inactive: [12] 102 % of control | [13] 105 % of control | [14] 107 % of control

CSc1nccn2c(C)nnc12
inactive: dose: 100.0 mg/kg/injection, schedule: Q01DX001 (ip), vehicle: suspension in saline 92 % of control | dose: 200.0 mg/kg/injection, schedule: Q01DX001 (ip), vehicle: suspension in saline 100 % of control

CN1CCC23c4c5ccc(O)c4OC2C(O)C=CC3C1C5 (centres undefined)
inactive: dose: 32.0 mg/kg/injection, schedule: Q01DX009 (ip), vehicle: saline 97 % of control | dose: 64.0 mg/kg/injection, schedule: Q01DX009 (ip), vehicle: saline 106 % of control | dose: 128.0 mg/kg/injection, schedule: Q01DX009 (ip), vehicle: saline 95 % of control

O=c1[nH]c2cc(Cl)ccc2nc1/C=C(\O)c1ccccc1
inactive: [7] 96 % of control | [8] 91 % of control | [9] 92 % of control

O=C1C=CC2C3C(=O)N(c4ccccc4)C(=O)C3C1N2Cc1ccccc1 (centres undefined)
inactive: [17] 105 % of control and 110 % of control and 118 % of control | [18] 116 % of control and 117 % of control and 118 % of control | [19] 119 % of control and 120 % of control and 123 % of control | dose: 400.0 mg/kg/injection, schedule: Q01DX005 (ip), vehicle: saline with Tween-80 113 % of control and 114 % of control

CN1CCCC(C(=O)c2ccccc2)C1 (centres undefined)
inactive: dose: 12.5 mg/kg/injection, schedule: Q01DX009 (ip), vehicle: saline 109 % of control | dose: 25.0 mg/kg/injection, schedule: Q01DX009 (ip), vehicle: saline 105 % of control | [12] 107 % of control and 94 % of control

CCN=C(N)N/N=C(\C)c1ccc2c(c1)Cc1cc(/C(C)=N/NC(N)=NCC)ccc1-2
inactive: dose: 0.39 mg/kg/injection, schedule: Q04DX002 (ip), vehicle: saline with Tween-80 100 % of control | dose: 0.39 mg/kg/injection, schedule: Q04DX002 (ip), vehicle: saline 98 % of control | dose: 0.78 mg/kg/injection, schedule: Q04DX002 (ip), vehicle: saline with Tween-80 94 % of control | dose: 0.78 mg/kg/injection, schedule: Q04DX002 (ip), vehicle: saline 93 % of control | dose: 1.56 mg/kg/injection, schedule: Q04DX002 (ip), vehicle: saline with Tween-80 103 % of control | dose: 1.56 mg/kg/injection, schedule: Q04DX002 (ip), vehicle: saline 102 % of control | dose: 3.12 mg/kg/injection, schedule: Q04DX002 (ip), vehicle: saline with Tween-80 101 % of control | dose: 3.12 mg/kg/injection, schedule: Q04DX002 (ip), vehicle: saline 104 % of control | dose: 6.25 mg/kg/injection, schedule: Q04DX002 (ip), vehicle: saline with Tween-80 102 % of control | dose: 6.25 mg/kg/injection, schedule: Q04DX002 (ip), vehicle: saline 105 % of control | dose: 12.5 mg/kg/injection, schedule: Q04DX002 (ip), vehicle: saline 105 % of control | dose: 25.0 mg/kg/injection, schedule: Q04DX002 (ip), vehicle: saline 102 % of control

N#C/C(=C\c1cccs1)c1nc(-c2ccc(Cl)cc2)cs1
inactive: [12] 91 % of control | [13] 91 % of control

CCOc1cc(C(C)c2ccc(OC)cc2)c(OCC)cc1OC (centres undefined)
inactive: dose: 60.0 mg/kg/injection, schedule: Q01DX005 (ip), vehicle: saline with Tween-80 106 % of control | dose: 120.0 mg/kg/injection, schedule: Q01DX005 (ip), vehicle: saline with Tween-80 100 % of control | dose: 240.0 mg/kg/injection, schedule: Q01DX005 (ip), vehicle: saline with Tween-80 103 % of control

C[C@]12CC[C@H](O)CC1CC[C@@H]1C2CC[C@]2(C)NC(=O)CCC12 (some centres undefined)
inactive: [20] 108 % of control | [21] 108 % of control | [22] 120 % of control

COC(=O)c1csc(-c2csc(CCNC(=O)c3ccccc3)n2)n1
inactive: dose: 100.0 mg/kg/injection, schedule: Q04DX002 (ip), vehicle: saline with Tween-80 93 % of control | dose: 200.0 mg/kg/injection, schedule: Q04DX002 (ip), vehicle: saline with Tween-80 95 % of control | dose: 400.0 mg/kg/injection, schedule: Q04DX002 (ip), vehicle: saline with Tween-80 96 % of control

O=[N+]([O-])c1cc(Cl)c(Cl)cc1[N+](=O)[O-]
inactive: [15] 98 % of control | [16] 111 % of control

Cc1nn(C)c(=O)[nH]c1=O
inactive: [17] 103 % of control | [18] 106 % of control | [19] 106 % of control

CC(O)(CCCCCl)c1nc2ccccc2s1 (centres undefined)
inactive: [20] 98 % of control | [21] 103 % of control | [22] 92 % of control

Cc1nn(-c2nc(-c3ccc(Br)cc3)cs2)c(C)c1C
inactive: [3] 105 % of control | [4] 106 % of control | dose: 200.0 mg/kg/injection, schedule: Q01DX009 (ip), vehicle: Klucel (hydroxypropylcellulose) (HPC) 105 % of control

COC(=O)c1ccc(C)c(NS(=O)(=O)c2ccc3c(c2)c(=O)sn3C)c1
inactive: [17] 102 % of control | [18] 110 % of control | [19] 112 % of control
